The record followed here is ChEMBL document CHEMBL1287810, “Diamino-1,2,4-triazole derivatives are selective inhibitors of TYK2 and JAK1 over JAK2 and JAK3” (Bioorg Med Chem Lett, 2010).

Where only a bound is given, the exact number is not on record here.

The target in test [1] is Tyrosine-protein kinase JAK1 (Homo sapiens, UniProt P23458).
Test [2] concerns the target T1, Tyrosine-protein kinase JAK3 (Homo sapiens, UniProt P52333).
T1 sequence (P52333 whole entry): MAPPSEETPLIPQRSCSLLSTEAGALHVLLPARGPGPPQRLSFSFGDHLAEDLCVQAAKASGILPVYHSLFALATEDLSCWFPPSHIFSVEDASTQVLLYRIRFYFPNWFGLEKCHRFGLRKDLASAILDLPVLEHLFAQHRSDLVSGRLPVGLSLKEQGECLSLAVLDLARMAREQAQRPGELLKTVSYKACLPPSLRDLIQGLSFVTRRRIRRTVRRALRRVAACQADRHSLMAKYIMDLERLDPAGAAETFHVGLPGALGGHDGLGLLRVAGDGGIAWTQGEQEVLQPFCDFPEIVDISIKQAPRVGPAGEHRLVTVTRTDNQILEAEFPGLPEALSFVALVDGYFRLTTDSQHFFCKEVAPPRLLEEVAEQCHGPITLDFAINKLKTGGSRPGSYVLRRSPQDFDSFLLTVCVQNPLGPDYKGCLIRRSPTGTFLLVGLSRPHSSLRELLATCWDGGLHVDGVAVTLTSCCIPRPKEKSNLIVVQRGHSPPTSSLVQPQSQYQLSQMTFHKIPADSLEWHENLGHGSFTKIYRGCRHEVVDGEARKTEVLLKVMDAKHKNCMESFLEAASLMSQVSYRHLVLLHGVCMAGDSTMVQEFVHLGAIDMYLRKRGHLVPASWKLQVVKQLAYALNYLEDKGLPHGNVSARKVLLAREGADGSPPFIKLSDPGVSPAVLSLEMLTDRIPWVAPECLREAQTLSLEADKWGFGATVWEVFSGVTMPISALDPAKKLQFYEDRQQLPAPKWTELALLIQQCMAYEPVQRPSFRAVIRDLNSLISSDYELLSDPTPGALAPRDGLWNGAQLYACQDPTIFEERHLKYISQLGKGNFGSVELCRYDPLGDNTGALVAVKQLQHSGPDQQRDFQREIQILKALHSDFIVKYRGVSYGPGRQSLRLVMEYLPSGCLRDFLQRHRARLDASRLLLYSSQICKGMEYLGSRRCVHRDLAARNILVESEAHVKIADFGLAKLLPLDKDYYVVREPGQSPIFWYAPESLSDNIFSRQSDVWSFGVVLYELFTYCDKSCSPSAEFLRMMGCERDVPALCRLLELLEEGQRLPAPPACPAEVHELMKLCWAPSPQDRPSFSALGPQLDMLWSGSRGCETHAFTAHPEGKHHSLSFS

The target of test [3] is Tyrosine-protein kinase JAK2 (Homo sapiens, UniProt O60674).
The target in test [4] is Non-receptor tyrosine-protein kinase TYK2 (Homo sapiens, UniProt P29597).
Chain of Non-receptor tyrosine-protein kinase TYK2 (P29597 whole entry): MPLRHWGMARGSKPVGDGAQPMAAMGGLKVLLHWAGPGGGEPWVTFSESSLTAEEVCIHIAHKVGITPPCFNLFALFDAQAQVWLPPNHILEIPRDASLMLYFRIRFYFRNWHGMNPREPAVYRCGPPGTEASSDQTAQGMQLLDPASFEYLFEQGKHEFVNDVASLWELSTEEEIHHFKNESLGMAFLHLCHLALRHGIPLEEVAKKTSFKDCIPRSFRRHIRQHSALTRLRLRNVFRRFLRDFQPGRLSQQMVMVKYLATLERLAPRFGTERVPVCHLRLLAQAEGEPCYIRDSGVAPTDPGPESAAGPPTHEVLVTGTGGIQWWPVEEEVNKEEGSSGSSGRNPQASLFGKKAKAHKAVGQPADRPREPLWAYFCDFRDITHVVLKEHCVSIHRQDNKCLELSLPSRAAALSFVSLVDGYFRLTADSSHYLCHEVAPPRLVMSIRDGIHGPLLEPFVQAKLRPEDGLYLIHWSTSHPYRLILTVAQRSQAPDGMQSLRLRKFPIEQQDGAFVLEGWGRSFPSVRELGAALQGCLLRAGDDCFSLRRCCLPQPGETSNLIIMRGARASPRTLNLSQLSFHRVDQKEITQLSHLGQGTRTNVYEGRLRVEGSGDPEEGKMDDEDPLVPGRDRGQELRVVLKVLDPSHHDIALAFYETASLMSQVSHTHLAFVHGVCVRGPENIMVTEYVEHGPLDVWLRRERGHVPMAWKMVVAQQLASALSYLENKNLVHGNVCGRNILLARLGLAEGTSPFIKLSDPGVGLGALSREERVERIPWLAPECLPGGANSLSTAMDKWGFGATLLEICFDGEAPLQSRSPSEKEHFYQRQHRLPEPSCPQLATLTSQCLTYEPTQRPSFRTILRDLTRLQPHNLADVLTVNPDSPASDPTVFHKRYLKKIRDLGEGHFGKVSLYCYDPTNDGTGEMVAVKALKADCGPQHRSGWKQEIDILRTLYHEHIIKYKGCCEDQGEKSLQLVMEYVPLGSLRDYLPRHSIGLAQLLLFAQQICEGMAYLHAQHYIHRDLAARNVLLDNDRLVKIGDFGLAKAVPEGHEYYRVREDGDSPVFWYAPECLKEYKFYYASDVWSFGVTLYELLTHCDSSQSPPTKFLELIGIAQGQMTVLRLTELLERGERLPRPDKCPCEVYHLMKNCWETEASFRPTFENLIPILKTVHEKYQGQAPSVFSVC

Chain of Tyrosine-protein kinase JAK1 (P23458 whole entry): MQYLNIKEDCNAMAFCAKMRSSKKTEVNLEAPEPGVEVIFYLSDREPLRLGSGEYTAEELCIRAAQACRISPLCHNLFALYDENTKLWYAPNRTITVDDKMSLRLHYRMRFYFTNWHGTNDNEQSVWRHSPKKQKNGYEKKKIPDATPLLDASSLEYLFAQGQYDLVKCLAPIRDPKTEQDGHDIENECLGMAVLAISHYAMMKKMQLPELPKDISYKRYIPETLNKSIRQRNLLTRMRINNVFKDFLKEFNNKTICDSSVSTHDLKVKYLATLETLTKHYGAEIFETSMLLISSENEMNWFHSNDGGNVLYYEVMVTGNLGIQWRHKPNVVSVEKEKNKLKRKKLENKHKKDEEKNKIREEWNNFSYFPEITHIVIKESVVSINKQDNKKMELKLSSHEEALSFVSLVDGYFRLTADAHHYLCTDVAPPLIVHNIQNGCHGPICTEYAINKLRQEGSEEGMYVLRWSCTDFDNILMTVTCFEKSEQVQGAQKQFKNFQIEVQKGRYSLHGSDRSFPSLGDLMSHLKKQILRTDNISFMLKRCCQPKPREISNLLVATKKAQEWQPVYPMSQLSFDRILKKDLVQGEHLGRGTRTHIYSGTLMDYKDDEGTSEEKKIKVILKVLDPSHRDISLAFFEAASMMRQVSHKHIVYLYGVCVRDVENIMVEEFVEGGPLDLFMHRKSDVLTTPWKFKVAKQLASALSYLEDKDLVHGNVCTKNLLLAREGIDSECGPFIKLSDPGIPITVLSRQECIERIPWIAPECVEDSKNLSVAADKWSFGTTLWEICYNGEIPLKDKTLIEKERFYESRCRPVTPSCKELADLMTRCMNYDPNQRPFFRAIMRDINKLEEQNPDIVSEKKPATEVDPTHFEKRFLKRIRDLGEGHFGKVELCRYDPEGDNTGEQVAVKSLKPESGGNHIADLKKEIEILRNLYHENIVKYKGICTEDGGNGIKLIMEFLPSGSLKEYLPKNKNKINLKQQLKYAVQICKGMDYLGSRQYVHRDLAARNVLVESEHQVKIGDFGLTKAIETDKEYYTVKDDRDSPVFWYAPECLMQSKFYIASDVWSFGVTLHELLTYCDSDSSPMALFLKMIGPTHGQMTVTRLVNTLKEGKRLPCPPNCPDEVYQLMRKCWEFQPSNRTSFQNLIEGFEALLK
Chain of Tyrosine-protein kinase JAK2 (O60674 whole entry): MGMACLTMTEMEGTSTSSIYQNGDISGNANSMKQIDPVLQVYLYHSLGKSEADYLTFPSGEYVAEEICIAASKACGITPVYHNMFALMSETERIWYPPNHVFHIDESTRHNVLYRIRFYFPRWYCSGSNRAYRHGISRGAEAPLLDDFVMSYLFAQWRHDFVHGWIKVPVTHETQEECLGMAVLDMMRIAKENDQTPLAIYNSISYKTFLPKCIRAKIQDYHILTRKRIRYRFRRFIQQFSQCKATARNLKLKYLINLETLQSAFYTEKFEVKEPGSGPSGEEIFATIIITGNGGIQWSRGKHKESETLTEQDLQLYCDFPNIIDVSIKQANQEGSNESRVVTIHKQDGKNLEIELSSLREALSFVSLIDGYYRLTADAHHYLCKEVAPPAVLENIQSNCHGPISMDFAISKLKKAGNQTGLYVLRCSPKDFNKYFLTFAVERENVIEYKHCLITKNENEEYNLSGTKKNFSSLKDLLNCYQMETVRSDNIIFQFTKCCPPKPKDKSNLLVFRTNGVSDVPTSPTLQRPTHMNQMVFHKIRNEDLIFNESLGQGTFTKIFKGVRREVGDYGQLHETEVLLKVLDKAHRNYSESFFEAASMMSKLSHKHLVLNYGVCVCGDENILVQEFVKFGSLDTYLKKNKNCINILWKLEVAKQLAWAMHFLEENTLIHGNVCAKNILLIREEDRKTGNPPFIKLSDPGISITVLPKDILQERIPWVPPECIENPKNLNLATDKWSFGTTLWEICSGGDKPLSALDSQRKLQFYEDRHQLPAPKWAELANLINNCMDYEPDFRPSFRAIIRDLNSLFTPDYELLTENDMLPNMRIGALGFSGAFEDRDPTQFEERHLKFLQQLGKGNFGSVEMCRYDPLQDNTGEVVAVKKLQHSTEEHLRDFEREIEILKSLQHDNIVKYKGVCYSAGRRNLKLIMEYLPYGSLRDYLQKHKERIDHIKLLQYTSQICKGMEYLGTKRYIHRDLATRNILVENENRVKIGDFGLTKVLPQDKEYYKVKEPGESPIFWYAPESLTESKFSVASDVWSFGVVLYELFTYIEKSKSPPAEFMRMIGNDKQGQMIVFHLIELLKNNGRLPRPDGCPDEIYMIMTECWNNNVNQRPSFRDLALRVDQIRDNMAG

For `CCOC(=O)c1cccc(Nc2nc(N)n(C(=O)c3c(F)cccc3F)n2)c1`, the IC50 (as a rule, the concentration needed to halve the response being measured) in test [1] was 990 nM; in test [2], over 10000 nM; in test [3] it was over 10 µM; in test [4] it was 1720 nM.

Consider `Nc1nc(Nc2cccc(S(N)(=O)=O)c2)nn1C(=O)c1c(F)cccc1F`, for which the IC50 turned out to be 19 nM in test [1], 1250 nM in test [2], 2.5 µM in test [3] and 70 nM in test [4].

Take `Nc1nc(Nc2cccc(C(=O)O)c2)nn1C(=O)c1c(F)cccc1F`: the half-maximal inhibitory concentration (IC50) in test [1] was 610 nM; in test [2], over 10000 nM; in test [3], over 10 µM; in test [4], 690 nM.

Take `COC(=O)c1ccc(Nc2nc(N)n(C(=O)c3c(F)cccc3F)n2)cc1`: the IC50 was 500 nM in test [1], over 10000 nM in test [2], over 10 µM in test [3] and 760 nM in test [4].

For the compound `Nc1nc(Nc2ccc(C(=O)O)cc2)nn1C(=O)c1c(F)cccc1F`, the IC50 in test [1] was determined as 45 nM; in test [2], 1470 nM; in test [3], 2.11 µM; in test [4] it was 42 nM.

`CCOC(=O)c1cccc(Nc2nc(N)nn2C(=O)c2c(F)cccc2F)c1`: in test [4], the IC50 was over 10000 nM.

As for `Nc1nc(Nc2ccccc2)nn1C(=O)c1c(F)cccc1F`, the IC50 in test [1] is 230 nM; in test [2] it was 3250 nM; in test [3], at least 10 µM; in test [4], 360 nM.

Regarding `CN(C)c1cccc(Nc2nc(N)n(C(=O)c3c(F)cccc3F)n2)c1`, the IC50 in test [1] amounted to 39 nM; in test [2], 2000 nM; in test [3], 5 µM; in test [4], 70 nM.

Regarding `CN(C)c1ccc(Nc2nc(N)n(C(=O)c3c(F)cccc3F)n2)cc1`, the IC50 turned out to be 80 nM in test [1], 850 nM in test [2], 2.5 µM in test [3] and 70 nM in test [4].

As to `Nc1nc(Nc2cccnc2)nn1C(=O)c1c(F)cccc1F`, the IC50 in test [1] was 160 nM; in test [2], 5000 nM; in test [3], over 10 µM; in test [4] it was 300 nM.

As to `CCOC(=O)c1cccc(Nc2nc(N)n(C(=O)c3ccccc3)n2)c1`, the IC50 in test [4] is over 10000 nM.

For `CCOC(=O)c1cccc(Nc2nc(N)n(C(=O)c3ccccc3F)n2)c1`, the IC50 in test [1] is at least 10000 nM; in test [2], over 10000 nM; in test [3], over 10 µM; in test [4], 6040 nM.

In test [4], `CCOC(=O)c1cccc(Nc2nc(N)n(C(=O)c3ccc(C(F)(F)F)cc3)n2)c1` returned an IC50 of over 10000 nM.

For the compound `CCOC(=O)c1cccc(Nc2nc(N)n(C(=O)c3ccc(N(C)C)cc3)n2)c1`, the IC50 in test [4] was over 10000 nM.

As to `CCOC(=O)c1cccc(Nc2nc(N)n(C(=O)c3ccco3)n2)c1`, the IC50 in test [4] is over 10000 nM.

Regarding `CCOC(=O)c1cccc(Nc2nnc(N)[nH]2)c1`, the IC50 in test [4] is over 10000 nM.
